In ChEMBL document CHEMBL5543116, “Discovery of DNL343: A Potent, Selective, and Brain-Penetrant eIF2B Activator Designed for the Treatment of Neurodegenerative Diseases” (J Med Chem, 2024):
≈ marks a conversion by molar mass, not a printed value.

Tests used:
[1] = Lipophilicity, log D of the compound at pH 7.4; assay type: physicochemical; conditions: buffer
[2] = Metabolic stability in human liver microsome assessed as hepatic clearance; assay type: ADME; conditions: liver microsomes
[3] = Kinetic solubility of compound; assay type: physicochemical; conditions: read-out: Kinetic_solubility

logD [1]	CLhep predicted [2] [mL/min/kg]	solubility kinetic [3] [µM]	SMILES
3.6	13	–	O=C(COc1ccc(Cl)c(F)c1)NC12CC(NC(=O)CO[C@H]3C[C@H](C(F)(F)F)C3)(C1)C2
2.6	–	181 (≈ 66 µg/mL)	O=C(COc1ccc(Cl)cc1)NC12CC(NC(=O)COC3CC3)(C1)C2
–	12	–	O=C(NC12CC(c3nnc([C@H]4C[C@@H](OC(F)(F)F)C4)o3)(C1)C2)C1CCc2cc(Cl)ccc2O1 (some centres undefined)
3.1	13	–	OC(COC1CCC(Cl)C(F)C1)NC12CC(NC(O)CO[C@H]3C[C@@H](C(F)(F)F)C3)(C1)C2 (some centres undefined)
–	< 6	–	O=C(COc1ccc(Cl)c(F)c1)NC12CC(c3cnn([C@H]4C[C@@H](OC(F)(F)F)C4)n3)(C1)C2
4.5	–	< 1	O=C(COc1ccc(Cl)cc1)NC12CCC(NC(=O)COc3ccc(Cl)cc3)(CC1)CC2
2.9	–	141 (≈ 53.4 µg/mL)	O=C(COc1ccc(Cl)cc1)NC12CC(NC(=O)COC3CCC3)(C1)C2
4.6	–	< 1	O=C(COc1ccc(Cl)cc1)NC12CCC(NC(=O)COc3ccc(Cl)cc3)(CC1)C2
–	15	–	O=C(COc1ccc(Cl)c(F)c1)NC12CC(N3C[C@H]([C@H]4C[C@@H](OC(F)(F)F)C4)OC3=O)(C1)C2
1.8	–	194 (≈ 76.6 µg/mL)	O=C(COc1ccc(Cl)cc1)NC12CC(NC(=O)COC3CCOC3)(C1)C2 (centres undefined)
2.9	–	184 (≈ 69.7 µg/mL)	O=C(COCC1CC1)NC12CC(NC(=O)COc3ccc(Cl)cc3)(C1)C2
